In US8575391B2, “5-substituted-2-phenylamino benzamides as MEK inhibitors” (priority 2004, dated 2013):
≈ marks a conversion by molar mass, not a printed value.

Legend:
in vitro = in vitro ADME; conditions: liver microsomes; mouse liver microsome 1 mg protein/mL, 2 mM NADPH, pH 7.4, 37° C.; read-out: Stability against mouse liver microsome T1/2
[1] = system: Human colon cancer cell line HT-29; experiment: cells; conditions: HT-29, 96 h, read-out: Growth inhibitory activity against cancer cells HT29 IC50
Protocol: (§1) The growth inhibitory activities against cancer cells were measured using Cell Counting Kit-8 (Dojindo Laboratories).

physchem = type: physicochemical; conditions: aqueous buffer, thermodynamic from solid; 50 mM phosphate buffer (pH 6.5), room temperature (20° C.); read-out: Water solubility
[2] = system: human non-small cell lung carcinoma cell line QG56; experiment: cells; conditions: QG-56, 96 h, read-out: Growth inhibitory activity against cancer cells QG56 IC50
Protocol: as §1

Which half-life (in vitro) does the source give for `C#Cc1ccc(Nc2c(C(=O)NOCCO)cc(CN3OCCCC3=O)c(F)c2F)c(F)c1` [Compound G-4, 2-(4-Ethynyl-2-fluoro-phenylamino)-3,4-difluoro-N-(2-hydroxy-ethoxy)-5-(3-oxo-[1,2]oxadinan-2-ylmethyl)-benzamide] here?
Its half-life is > 6 h.

What about the IC50 [1] of the same compound?
Its IC50 is 5.7 nM.

And the solubility at 2 h (physchem)?
The solubility at 2 h was 344 µM (≈ 159 µg/mL).

And the IC50 [2]?
The IC50 was 21 nM.
